# In US9221816B2, “2-oxo-2,3-dihydro-indoles for the treatment of CNS disorders” (Hoffmann-La Roche Inc., priority 2012, dated 2015):
# Tested on: L-687,414-induced hyperlocomotion
# Assay: L-687,414-induced hyperlocomotion (Digiscan locomotor activity)
# Format: in vivo, mouse
# Details: mice; for Inhibition, ip: dose ip 30, at the same time as s.c. 50 mg/kg L-687,414, % inhibition of horizontal activity; for ID50 po: p.o. 15 min before s.c. 50 mg/kg L-687,414, dose producing 50% inhibition of hyperlocomotion
# Protocol: The authors described that hyperlocomotion induced by L-687,414 was inhibited by a series of known antipsychotic drugs. […] These findings predict antipsychotic activity for the present compounds, making them useful for the treatment of schizophrenia and other disorders as described above.
# The described compounds of formula I and I-1 reduce L-687,414-induced hyperlocomotion. This was assessed by using a computerized Digiscan 16 Animal Activity Monitoring System (Omnitech Electronics, Columbus, Ohio) to quantify locomotor activity. Animals were kept under a 12 h light/dark cycle and experiments were performed during the light period. Each activity monitoring chamber consisted of a Plexiglas box (41×41×28 cm; W×L×H) with sawdust bedding on the floor surrounded by invisible horizontal and vertical infrared sensor beams. The test boxes were divided by a Plexiglas cross providing each mouse with 20×20 cm of moving space. Cages were connected to a Digiscan Analyzer linked to a computer that constantly collected the beam status information. Records of photocell beam interruptions for individual animals were taken every 5 min over the duration of the experimental session and the sum of the first 6 periods was used as the final parameter. Compounds were administered either p.o. 15 min before a s.c. injection of 50 mg/kg of L-687,414, or i.p. at the same time as a s.c. injection of 50 mg/kg of L-687,414. Mice were then transferred from their home cage to the recording chambers for a 15-min habituation phase allowing free exploration of the new environment. Horizontal activity was then recorded for a 30-min time period. The % inhibition of L-687,414-induced hyperlocomotion was calculated according to the equation: ((Veh+L-687,414 horizontal activity−drug+L-687,414 horizontal activity)/Veh+L-687,414 horizontal activity)×100
# ID50 values, defined as doses of each compound producing 50% inhibition of L-687,414-induced hyperlocomotion, were calculated by linear regression analysis of a dose-response data using an Excel-based computer-fitting program.
# As data was not presupposed to be normally distributed, groups treated with test compounds were statistically compared with the control (vehicle-treated) group using one-tailed Mann Whitney U tests. In statistics, the Mann-Whitney U test (also called the Mann-Whitney-Wilcoxon (MWW) or Wilcoxon rank-sum test) is a non-parametric statistical hypothesis test for assessing whether one of two samples of independent observations tends to have larger values than the other. It is one of the most well-known non-parametric significance tests. […] P values given in table 1 are one-tailed since only decreases in locomotion were expected and tested for (Mann, H. B., Whitney, D. R. (1947), “On a Test of Whether one of Two Random Variables is Stochastically Larger than the Other”, Annals of Mathematical Statistics, 18 (1), 50-60).
Compound,"Inhibition, ip",ID50 po
"CCN1C(=O)C(C)(C)c2ccc(NC(=O)c3ccncc3Cl)cc21 [Example 40, 3-Chloro-N-(1-ethyl-3,3-dimethyl-2-oxoindolin-6-yl)isonicotinamide]",72.9%,–
"Cc1cc(C(=O)Nc2ccc3c(c2)N(C2CC2)C(=O)C3(C)C)c(F)cn1 [Example 54, N-(1-Cyclopropyl-3,3-dimethyl-2-oxoindolin-6-yl)-5-fluoro-2-methylisonicotinamide]",55.6%,–
"CN1C(=O)C(C)(C)c2cc(F)c(NC(=O)c3ccncc3)cc21 [Example 20, N-(5-Fluoro-1,3,3-trimethyl-2-oxoindolin-6-yl)isonicotinamide]",87.3%,–
"CC(C)N1C(=O)C(C)(C)c2ccc(NC(=O)c3cccnc3)cc21 [Example 37, N-(1-Isopropyl-3,3-dimethyl-2-oxoindolin-6-yl)nicotinamide]",64.0%,–
"CC1(C)C(=O)N(C2COC2)c2cc(NC(=O)c3cccnc3)ccc21 [Example 64, N-(3,3-Dimethyl-1-(oxetan-3-yl)-2-oxoindolin-6-yl)nicotinamide]",65.9%,–
"CN1C(=O)C(C)(C)c2ccc(NC(=O)c3cccnc3)cc21 [Example 4, N-(1,3,3-Trimethyl-2-oxoindolin-6-yl)nicotinamide]",–,1.84 mg/kg
"CC1(C)C(=O)N(C2CC2)c2cc(NC(=O)c3ccno3)ncc21 [Example 85, N-(1-Cyclopropyl-3,3-dimethyl-2-oxo-2,3-dihydro-1H-pyrrolo[3,2-c]pyridin-6-yl)isoxazole-5-carboxamide]",74.9%,–
"Cc1cc(C(=O)Nc2ccc3c(c2)N(C2CC2)C(=O)C32CC2)ccn1 [Example 60, N-(1′-Cyclopropyl-2′-oxospiro[cyclopropane-1,3′-indoline]-6′-yl)-2-methylisonicotinamide]",63.2%,–
"CN1C(=O)C(C)(C)c2cnc(NC(=O)c3ccncc3)cc21 [Example 6, N-(1,3,3-Trimethyl-2-oxo-2,3-dihydro-1H-pyrrolo[3,2-c]pyridin-6-yl)isonicotinamide]",64.5%,–
"CC1(C)C(=O)N(C2CC2)c2cc(NC(=O)c3ccncc3)c(F)cc21 [Example 36, N-(1-cyclopropyl-5-fluoro-3,3-dimethyl-2-oxoindolin-6-yl)isonicotinamide]",89.0%,–
"CN1C(=O)C(C)(C)c2ccc(NC(=O)c3ccncc3Cl)cc21 [Example 27, 3-Chloro-N-(1,3,3-trimethyl-2-oxoindolin-6-yl)isonicotinamide]",–,1.95 mg/kg
"CC1(C)C(=O)N(C2CC2)c2cc(NC(=O)c3ccncc3F)ccc21 [Example 31, N-(1-Cyclopropyl-3,3-dimethyl-2-oxoindolin-6-yl)-3-fluoroisonicotinamide]",–,1 mg/kg
"CN1C(=O)C2(CCCC2)c2ccc(NC(=O)c3ccncc3)cc21 [Example 3, N-(1′-Methyl-2′-oxospiro[cyclopentane-1,3′-indoline]-6′-yl)isonicotinamide]",83.3%,–
"CC1(C)C(=O)N(C2CC2)c2cc(NC(=O)c3ccnc(Cl)c3)ncc21 [Example 83, 2-Chloro-N-(1-cyclopropyl-3,3-dimethyl-2-oxo-2,3-dihydro-1H-pyrrolo[3,2-c]pyridin-6-yl)isonicotinamide]",79.6%,–
"Cc1ccncc1C(=O)Nc1ccc2c(c1)N(C)C(=O)C2(C)C [Example 9, 4-Methyl-N-(1,3,3-trimethyl-2-oxoindolin-6-yl)nicotinamide]",–,6.6 mg/kg
"CCN1C(=O)C(C)(C)c2ccc(NC(=O)c3ccncc3)cc21 [Example 7, N-(1-ethyl-3,3-dimethyl-2-oxoindolin-6-yl)isonicotinamide]",90.4%,–
"Cc1cc(C(=O)Nc2ccc3c(c2)N(C)C(=O)C3(C)C)ccn1 [Example 5, 2-Methyl-N-(1,3,3-trimethyl-2-oxoindolin-6-yl)isonicotinamide]",77.2%,–
"Cc1cc(C(=O)Nc2ccc3c(c2)N(C)C(=O)C3(C)C)c(F)cn1 [Example 33, 5-Fluoro-2-methyl-N-(1,3,3-trimethyl-2-oxoindolin-6-yl)isonicotinamide]",78.6%,–

Compound,"Inhibition, ip",ID50 po
"CC1(C)C(=O)N(CC(F)(F)F)c2cc(NC(=O)c3ccncc3F)ccc21 [Example 74, N-(3,3-Dimethyl-2-oxo-1-(2,2,2-trifluoroethyl)indolin-6-yl)-3-fluoroisonicotinamide]",76.6%,–
"CN1C(=O)C(C)(C)c2ccc(NC(=O)c3ccc(F)cc3)cc21 [Example 43, 4-Fluoro-N-(1,3,3-trimethyl-2-oxoindolin-6-yl)benzamide]",88.0%,–
"COc1ccc(C(=O)Nc2ccc3c(c2)N(C)C(=O)C3(C)C)cn1 [Example 10, 6-Methoxy-N-(1,3,3-trimethyl-2-oxoindolin-6-yl)nicotinamide]",62.2%,–
"Cn1nccc1C(=O)Nc1cc2c(cn1)C(C)(C)C(=O)N2C1CC1 [Example 86, N-(1-Cyclopropyl-3,3-dimethyl-2-oxo-2,3-dihydro-1H-pyrrolo[3,2-c]pyridin-6-yl)-1-methyl-1H-pyrazole-5-carboxamide]",69%,–
"Cc1cc(C(=O)Nc2ccc3c(c2)NC(=O)C3(C)C)ccn1 [Example 1, N-(3,3-Dimethyl-2-oxo-2,3-dihydro-1H-indol-6-yl)-2-methyl-isonicotinamide]",81.6%,–
"Cc1cc(C(=O)Nc2ccc3c(c2)N(C2CC2)C(=O)C3(C)C)ccn1 [Example 17, N-(1-Cyclopropyl-3,3-dimethyl-2-oxoindolin-6-yl)-2-methylisonicotinamide]",79.3%,–
"CC1(C)C(=O)N(C2CC2)c2cc(NC(=O)c3cccnc3)c(F)cc21 [Example 38, N-(1-Cyclopropyl-5-fluoro-3,3-dimethyl-2-oxoindolin-6-yl)nicotinamide]",60.8%,–
"CC1(C)C(=O)N(CCCO)c2cc(NC(=O)c3ccncc3Cl)ccc21 [Example 73, 3-Chloro-N-(1-(3-hydroxypropyl)-3,3-dimethyl-2-oxoindolin-6-yl)isonicotinamide]",51.2%,–
"CC1(C)C(=O)N(CC2CC2)c2cc(NC(=O)c3ccncc3)ccc21 [Example 52, N-(1-(Cyclopropylmethyl)-3,3-dimethyl-2-oxoindolin-6-yl)isonicotinamide]",78.8%,–
"Cc1cc(C(=O)Nc2cc3c(cn2)C(C)(C)C(=O)N3C2CC2)ccn1 [Example 81, N-(1-Cyclopropyl-3,3-dimethyl-2-oxo-2,3-dihydro-1H-pyrrolo[3,2-c]pyridin-6-yl)-2-methylisonicotinamide]",53.1%,–
"O=C(Nc1ccc2c(c1)N(C1CC1)C(=O)C21CC1)c1ccncc1 [Example 55, N-(1′-Cyclopropyl-2′-oxospiro[cyclopropane-1,3′-indoline]-6′-yl)isonicotinamide]",61.7%,–
"CC1(C)C(=O)N(CCCO)c2cc(NC(=O)c3ccncc3F)ccc21 [Example 69, 3-Fluoro-N-(1-(3-hydroxypropyl)-3,3-dimethyl-2-oxoindolin-6-yl)isonicotinamide]",82.4%,–
"CC1(C)C(=O)N(CC2CC2)c2cc(NC(=O)c3ccncc3F)ccc21 [Example 53, N-(1-(Cyclopropylmethyl)-3,3-dimethyl-2-oxoindolin-6-yl)-3-fluoroisonicotinamide]",89.9%,–
"CC1(C)C(=O)N(C2CC2)c2cc(NC(=O)c3ccncc3)ccc21 [Example 14, N-(1-Cyclopropyl-3,3-dimethyl-2-oxoindolin-6-yl)isonicotinamide]",66.5%,–
"CC1(C)C(=O)N(CCCOC2CC2)c2cc(NC(=O)c3ccncc3F)ccc21 [Example 65, N-(1-(3-Cyclopropoxypropyl)-3,3-dimethyl-2-oxoindolin-6-yl)-3-fluoroisonicotinamide]",91.1%,–
"CCN1C(=O)C(C)(C)c2ccc(NC(=O)c3ccncc3F)cc21 [Example 41, N-(1-ethyl-3,3-dimethyl-2-oxoindolin-6-yl)-3-fluoroisonicotinamide]",85.2%,–
"Cc1cc(C(=O)Nc2cc3c(cc2Cl)C(C)(C)C(=O)N3C)ccn1 [Example 35, N-(5-Chloro-1,3,3-trimethyl-2-oxoindolin-6-yl)-2-methylisonicotinamide]",57.3%,–
"CC1(C)C(=O)N(C2CC2)c2cc(NC(=O)c3ccncc3)ncc21 [Example 79, N-(1-Cyclopropyl-3,3-dimethyl-2-oxo-2,3-dihydro-1H-pyrrolo[3,2-c]pyridin-6-yl)isonicotinamide]",–,0.94 mg/kg
